IC50 data for 22 molecules are collected here from ChEMBL document CHEMBL1148538, “Scaffold oriented synthesis. Part 1: Design, preparation, and biological evaluation of thienopyrazoles as kinase inhibitors” (Bioorg Med Chem Lett, 2006).

For one test, the target named is Casein kinase II (Homo sapiens, UniProt P19784+P67870+P68400). Nature of the test: Inhibitory activity against CK2. The test is classed as protein-complex assay.
In test [1] the target is Serine/threonine-protein kinase PAK 4 (Homo sapiens, UniProt O96013). Nature of the test: Inhibitory activity against Pak4.
Test [2] concerns the target Cyclin-dependent kinase 2/cyclin A (Homo sapiens, UniProt P24941). Nature of the test: Inhibitory activity against CDK2/Cyclin A. The test is classed as protein-complex assay.
The target in test [3] is RAC-alpha serine/threonine-protein kinase (Homo sapiens, UniProt P31749). Nature of the test: Inhibitory activity against Akt1.
The target of test [4] is Mitogen-activated protein kinase kinase kinase 8 (Homo sapiens, UniProt P41279). Nature of the test: Inhibitory activity against COT.
Test [5] deals with MAP kinase-activated protein kinase 2 (Homo sapiens, UniProt P49137). Nature of the test: Inhibitory activity against MK2.
The target in test [6] is Mitogen-activated protein kinase 14 (Homo sapiens, UniProt Q16539). Nature of the test: Inhibitory activity against p38alpha.
Test [7] addresses Serine/threonine-protein kinase PLK1 (Homo sapiens, UniProt P53350). Nature of the test: Inhibitory activity against Plk1.
The target in test [8] is Vascular endothelial growth factor receptor 2 (Homo sapiens, UniProt P35968). Nature of the test: Inhibitory activity against KDR.
Chain of Vascular endothelial growth factor receptor 2 (P35968 whole entry): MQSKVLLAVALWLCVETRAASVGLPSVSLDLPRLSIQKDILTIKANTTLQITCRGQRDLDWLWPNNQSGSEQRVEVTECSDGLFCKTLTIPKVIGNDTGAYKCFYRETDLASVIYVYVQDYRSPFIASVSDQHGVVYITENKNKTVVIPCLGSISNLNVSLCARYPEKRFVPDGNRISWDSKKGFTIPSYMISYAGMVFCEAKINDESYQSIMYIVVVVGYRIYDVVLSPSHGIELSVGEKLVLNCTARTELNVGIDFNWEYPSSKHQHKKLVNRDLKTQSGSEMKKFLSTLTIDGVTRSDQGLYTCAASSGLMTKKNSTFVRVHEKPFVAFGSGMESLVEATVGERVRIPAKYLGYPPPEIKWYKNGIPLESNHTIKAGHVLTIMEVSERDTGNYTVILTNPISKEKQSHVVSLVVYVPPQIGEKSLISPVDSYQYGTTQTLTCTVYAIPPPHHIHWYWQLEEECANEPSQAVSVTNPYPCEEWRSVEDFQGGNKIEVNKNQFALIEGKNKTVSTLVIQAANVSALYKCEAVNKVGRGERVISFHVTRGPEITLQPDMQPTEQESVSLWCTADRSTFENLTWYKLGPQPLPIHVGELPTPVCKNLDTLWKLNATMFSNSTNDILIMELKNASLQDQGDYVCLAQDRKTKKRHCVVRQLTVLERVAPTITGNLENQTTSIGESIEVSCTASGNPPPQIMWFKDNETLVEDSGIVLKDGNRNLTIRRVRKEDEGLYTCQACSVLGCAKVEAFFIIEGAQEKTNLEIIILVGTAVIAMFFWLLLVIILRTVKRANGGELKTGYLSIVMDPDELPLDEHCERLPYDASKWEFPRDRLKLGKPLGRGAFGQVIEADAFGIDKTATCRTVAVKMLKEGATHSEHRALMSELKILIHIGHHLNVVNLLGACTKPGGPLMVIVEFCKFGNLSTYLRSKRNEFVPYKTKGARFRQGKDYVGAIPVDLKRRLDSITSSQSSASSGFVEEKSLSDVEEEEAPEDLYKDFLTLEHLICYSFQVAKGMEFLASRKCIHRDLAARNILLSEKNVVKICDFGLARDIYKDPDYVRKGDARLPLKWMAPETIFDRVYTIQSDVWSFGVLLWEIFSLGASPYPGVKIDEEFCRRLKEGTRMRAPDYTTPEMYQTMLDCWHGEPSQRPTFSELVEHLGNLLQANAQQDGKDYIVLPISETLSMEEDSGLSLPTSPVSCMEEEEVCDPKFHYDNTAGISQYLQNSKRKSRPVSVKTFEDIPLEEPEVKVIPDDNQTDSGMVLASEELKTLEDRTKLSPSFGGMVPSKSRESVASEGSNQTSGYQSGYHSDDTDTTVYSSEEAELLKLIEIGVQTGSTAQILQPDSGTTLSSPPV

Chain of Casein kinase II (P67870 whole entry): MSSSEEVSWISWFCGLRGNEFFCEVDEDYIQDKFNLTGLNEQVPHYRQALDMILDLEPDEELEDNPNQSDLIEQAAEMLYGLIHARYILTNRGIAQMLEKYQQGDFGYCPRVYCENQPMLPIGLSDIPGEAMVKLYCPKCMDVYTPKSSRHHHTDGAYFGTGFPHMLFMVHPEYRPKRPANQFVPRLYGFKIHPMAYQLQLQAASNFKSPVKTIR
Chain of Casein kinase II (P68400 whole entry): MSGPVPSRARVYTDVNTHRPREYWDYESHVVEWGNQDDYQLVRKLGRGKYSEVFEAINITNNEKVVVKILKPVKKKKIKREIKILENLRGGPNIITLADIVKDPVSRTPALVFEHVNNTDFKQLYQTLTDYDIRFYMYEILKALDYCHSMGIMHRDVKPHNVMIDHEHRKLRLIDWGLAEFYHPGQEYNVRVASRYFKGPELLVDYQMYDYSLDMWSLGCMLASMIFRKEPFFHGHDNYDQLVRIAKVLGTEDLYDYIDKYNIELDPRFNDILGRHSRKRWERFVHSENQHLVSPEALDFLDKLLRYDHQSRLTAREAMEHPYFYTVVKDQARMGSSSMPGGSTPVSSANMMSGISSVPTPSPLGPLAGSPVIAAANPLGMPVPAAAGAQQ
Chain of Casein kinase II (P19784 whole entry): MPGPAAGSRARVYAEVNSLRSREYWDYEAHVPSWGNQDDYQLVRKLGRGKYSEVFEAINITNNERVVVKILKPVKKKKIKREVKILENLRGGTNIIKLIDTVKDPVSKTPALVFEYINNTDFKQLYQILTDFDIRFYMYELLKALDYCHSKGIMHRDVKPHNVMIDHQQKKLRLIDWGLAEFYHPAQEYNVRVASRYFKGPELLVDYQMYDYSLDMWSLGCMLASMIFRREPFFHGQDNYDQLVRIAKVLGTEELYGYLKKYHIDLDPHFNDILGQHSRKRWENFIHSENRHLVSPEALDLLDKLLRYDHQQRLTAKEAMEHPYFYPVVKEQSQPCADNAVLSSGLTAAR
Chain of Serine/threonine-protein kinase PAK 4 (O96013 whole entry): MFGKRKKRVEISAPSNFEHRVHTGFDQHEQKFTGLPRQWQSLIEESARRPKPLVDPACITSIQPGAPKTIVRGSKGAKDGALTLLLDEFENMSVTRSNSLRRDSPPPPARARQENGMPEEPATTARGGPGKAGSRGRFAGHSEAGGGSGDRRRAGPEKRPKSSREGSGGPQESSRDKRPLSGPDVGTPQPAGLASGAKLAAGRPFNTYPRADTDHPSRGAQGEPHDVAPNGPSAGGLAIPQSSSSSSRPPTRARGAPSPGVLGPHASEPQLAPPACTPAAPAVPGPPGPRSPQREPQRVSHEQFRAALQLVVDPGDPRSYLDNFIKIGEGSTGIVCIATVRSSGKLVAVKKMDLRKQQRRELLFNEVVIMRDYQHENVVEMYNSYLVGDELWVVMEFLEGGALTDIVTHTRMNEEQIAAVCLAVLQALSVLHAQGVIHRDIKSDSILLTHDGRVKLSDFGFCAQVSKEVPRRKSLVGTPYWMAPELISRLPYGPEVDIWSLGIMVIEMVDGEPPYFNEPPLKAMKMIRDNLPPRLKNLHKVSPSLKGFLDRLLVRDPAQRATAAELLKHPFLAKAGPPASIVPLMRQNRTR
Chain of Mitogen-activated protein kinase 14 (Q16539 whole entry): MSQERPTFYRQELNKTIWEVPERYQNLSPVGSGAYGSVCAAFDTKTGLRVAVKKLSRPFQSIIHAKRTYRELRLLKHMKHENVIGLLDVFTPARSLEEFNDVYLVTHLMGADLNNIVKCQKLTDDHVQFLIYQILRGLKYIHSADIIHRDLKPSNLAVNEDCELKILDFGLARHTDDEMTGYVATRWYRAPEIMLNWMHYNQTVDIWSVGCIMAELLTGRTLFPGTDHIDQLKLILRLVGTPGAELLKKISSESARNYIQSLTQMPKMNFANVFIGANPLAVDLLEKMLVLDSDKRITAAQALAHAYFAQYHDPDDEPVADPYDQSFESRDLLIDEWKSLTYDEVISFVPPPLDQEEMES
Chain of MAP kinase-activated protein kinase 2 (P49137 whole entry): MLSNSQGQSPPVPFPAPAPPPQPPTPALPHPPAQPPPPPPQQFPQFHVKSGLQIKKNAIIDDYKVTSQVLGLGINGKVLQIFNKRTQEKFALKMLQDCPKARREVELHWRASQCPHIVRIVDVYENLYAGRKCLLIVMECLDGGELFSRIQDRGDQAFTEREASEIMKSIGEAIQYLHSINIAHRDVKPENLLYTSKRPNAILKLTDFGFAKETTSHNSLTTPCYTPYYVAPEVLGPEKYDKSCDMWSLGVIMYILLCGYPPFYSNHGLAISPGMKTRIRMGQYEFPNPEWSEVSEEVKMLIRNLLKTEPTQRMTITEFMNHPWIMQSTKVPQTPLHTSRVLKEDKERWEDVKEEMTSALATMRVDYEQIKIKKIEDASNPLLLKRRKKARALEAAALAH
Chain of RAC-alpha serine/threonine-protein kinase (P31749 whole entry): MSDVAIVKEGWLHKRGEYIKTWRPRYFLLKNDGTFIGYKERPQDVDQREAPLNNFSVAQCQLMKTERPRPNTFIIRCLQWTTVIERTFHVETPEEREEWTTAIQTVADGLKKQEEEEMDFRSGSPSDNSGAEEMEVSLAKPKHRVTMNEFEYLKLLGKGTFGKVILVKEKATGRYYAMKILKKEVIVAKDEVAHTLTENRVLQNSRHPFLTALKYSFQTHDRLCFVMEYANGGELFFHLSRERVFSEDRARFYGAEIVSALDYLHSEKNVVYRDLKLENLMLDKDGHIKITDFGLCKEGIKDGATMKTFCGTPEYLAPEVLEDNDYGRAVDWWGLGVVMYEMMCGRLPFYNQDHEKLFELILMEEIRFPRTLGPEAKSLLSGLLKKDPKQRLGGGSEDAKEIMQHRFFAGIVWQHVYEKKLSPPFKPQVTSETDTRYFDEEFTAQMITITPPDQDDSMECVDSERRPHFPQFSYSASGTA
Chain of Mitogen-activated protein kinase kinase kinase 8 (P41279 whole entry): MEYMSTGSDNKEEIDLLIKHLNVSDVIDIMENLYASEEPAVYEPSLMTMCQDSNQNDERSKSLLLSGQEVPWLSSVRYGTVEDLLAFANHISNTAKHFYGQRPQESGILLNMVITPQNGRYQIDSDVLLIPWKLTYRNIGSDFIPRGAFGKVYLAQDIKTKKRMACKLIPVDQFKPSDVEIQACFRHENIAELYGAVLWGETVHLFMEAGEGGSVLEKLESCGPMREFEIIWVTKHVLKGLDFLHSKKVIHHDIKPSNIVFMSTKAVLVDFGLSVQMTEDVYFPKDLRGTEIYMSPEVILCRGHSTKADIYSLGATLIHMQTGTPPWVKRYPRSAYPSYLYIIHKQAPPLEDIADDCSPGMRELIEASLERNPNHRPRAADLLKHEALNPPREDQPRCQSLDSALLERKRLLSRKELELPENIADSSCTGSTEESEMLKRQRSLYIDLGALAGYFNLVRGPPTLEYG

The IC50 is the concentration that gives 50% inhibition. High values mean weaker potency, low ones greater potency. On to `O=C(NCCc1ccccc1)c1cc2c(-c3ccccc3)n[nH]c2s1`, for which the IC50 (on Casein kinase II; in [1]; in [2]; in test [3]; in test [4]; in test [5]) was over 20 µM each time. Also, the IC50 in test [6] was over 20 µM; in test [7], 17 µM; in [8], 2 µM.
Consider `Cc1n[nH]c2sc(C(N)=O)cc12`, for which the IC50 on Casein kinase II was 4 µM; in [1], over 20 µM; in [3], over 20 µM; in [4], over 20 µM; in [5], over 20 µM; in test [7], over 20 µM. The same molecule returned an IC50 in test [8] of 17 µM.
Take `COc1ccc(CNC(=O)c2cc3c(-c4ccccc4)n[nH]c3s2)cc1`: the IC50 at Casein kinase II is over 20 µM; in [1], over 20 µM; in [2] it was over 20 µM; in test [3], over 20 µM; in test [4], over 20 µM; in test [5] it was 16 µM. For the same molecule, the concentration for half-maximal inhibition (IC50) is over 20 µM in test [6], over 20 µM in test [7] and 0.51 µM in [8].
On to `CCCCN(C)C(=O)c1cc2c(-c3ccccc3)n[nH]c2s1`, for which the IC50 at Casein kinase II was 5 µM; in test [1] it was over 20 µM; in test [2], over 20 µM; in test [3] it was over 20 µM; in [4], over 20 µM; in test [5] it was over 20 µM. For the same molecule, the half-inhibitory concentration (IC50) in test [6] was over 20 µM; in [7], over 20 µM; in test [8], 0.35 µM.
In the case of `Cc1n[nH]c2sc(C(N)=O)c(NC(=O)c3cccc(Cl)c3)c12`, the IC50 (on Casein kinase II; in test [1]; in test [3]; in test [7]; in test [8]) was over 100 µM throughout.
On to `Cc1[nH]nc2sc(C(N)=O)c(NC(=O)c3ccc(Cl)cc3)c12`, for which the IC50 (against Casein kinase II; in test [1]; in test [3]; in test [7]; in test [8]) was over 100 µM in each case.
For `CC(=O)Nc1c(C(N)=O)sc2n[nH]c(C)c12`, the IC50 was 9 µM at Casein kinase II; over 20 µM in test [1]; over 20 µM in [3]; over 20 µM in test [7]; 19 µM in test [8].
Consider `O=C(NC1CCCCC1)c1cc2c(-c3ccccc3)n[nH]c2s1`, for which the IC50 is over 20 µM against Casein kinase II; over 20 µM in [1]; 11 µM in test [2]; over 20 µM in test [3]; over 20 µM in test [4]; over 20 µM in [5]. Further, the figures for the IC50 in test [6], in [7] and in [8] were over 20 µM, 12 µM and 0.49 µM, respectively.
For the molecule `Cc1n[nH]c2sc(C(N)=O)c(NC(=O)COc3ccccc3)c12`, the IC50 on Casein kinase II was 6 µM; in [1], over 100 µM; in test [3], over 100 µM; in [7], over 100 µM; in test [8], 11 µM.
As for `Cc1n[nH]c2sc(C(=O)NC3CCCCC3)cc12`, the IC50 (on Casein kinase II; in test [1]; in test [3]; in test [4]; in test [5]; in test [7]) was over 20 µM throughout. For the same molecule, the IC50 in test [8] is over 20 µM.
In the case of `Cc1[nH]nc2sc(C(N)=O)c(NC(=O)Nc3ccccc3)c12`, the IC50 against Casein kinase II was 11 µM; in [1] it was 13 µM; in [3], 9 µM; in [7] it was over 20 µM; in test [8], 20 µM.
The corresponding values for `COC(=O)c1cc2c(CN3CCCCC3)n[nH]c2s1` are over 100 µM, over 100 µM, over 100 µM, over 100 µM and over 100 µM.
For `O=C(NCc1ccccc1)c1cc2c(-c3ccccc3)n[nH]c2s1`, the IC50 was 2 µM at Casein kinase II; over 20 µM in [1]; 15 µM in test [3]; over 20 µM in test [4]; 17 µM in test [5]; 0.5 µM in [8].
With `COC(=O)c1cc2c(C)n[nH]c2s1`, the IC50 is 38 µM on Casein kinase II; over 100 µM in [1]; over 100 µM in test [3]; over 100 µM in test [7]; 23 µM in [8].
Regarding `CCCCN(C)C(=O)c1cc2c(C)n[nH]c2s1`, the IC50 against Casein kinase II is 24 µM; in test [1] it was over 20 µM; in [3], over 20 µM; in [4], over 20 µM; in test [5] it was over 20 µM; in test [7], over 20 µM. For the same molecule, the IC50 in test [8] was over 20 µM.
For the molecule `COC(=O)c1cc2c(Nc3ccccc3)[nH]nc2s1`, the IC50 at Casein kinase II was 5 µM; in [1], 37 µM; in test [3], 16 µM; in test [7] it was 21 µM; in test [8] it was over 100 µM.
Consider `COC(=O)C(=O)Nc1c(C(N)=O)sc2[nH]nc(C)c12`, for which the IC50 at Casein kinase II was 3 µM; in [1] it was over 100 µM; in test [3] it was over 100 µM; in test [7], 8 µM; in [8] it was 17 µM.
In the case of `CN1CCN(C(=O)c2cc3c(-c4ccccc4)n[nH]c3s2)CC1`, the IC50 (on Casein kinase II; in test [1]; in [2]; in [3]; in [4]; in [5]) was over 20 µM throughout. For the same molecule, the IC50 in test [6] was over 20 µM; in [7] it was over 20 µM; in test [8], 4 µM.
Consider `CCCCNC(=O)c1cc2c(C)n[nH]c2s1`, for which the IC50 is 21 µM against Casein kinase II; over 20 µM in [1]; over 20 µM in test [3]; over 20 µM in [4]; over 20 µM in test [5]; over 20 µM in test [7]. In test [8], this molecule showed an IC50 of 16 µM.
As to `Cc1[nH]nc2sc(C(N)=O)c(NC(=O)c3ccccc3Cl)c12`, the IC50 on Casein kinase II is 9 µM; in test [1] it was over 100 µM; in test [3], over 100 µM; in test [7] it was 23 µM; in [8], 8 µM.
As for `Cc1n[nH]c2sc(C(=O)NCc3ccccc3)cc12`, the IC50 at Casein kinase II is 19 µM; in test [1] it was over 20 µM; in [3], over 20 µM; in test [4] it was over 20 µM; in test [5], over 20 µM; in test [7] it was 16 µM. Also, inhibition in test [8] was half-maximal at 12 µM (IC50).
As for `Cc1n[nH]c2sc(C(N)=O)c(NC(=O)c3cccs3)c12`, the IC50 is over 100 µM against Casein kinase II; over 100 µM in [1]; 17 µM in [3]; over 100 µM in [7]; 6 µM in [8].
